Results: patent publication US12551482B2, “Aurora kinase inhibitors” (The Regents of the University of California, priority 2013, dated 2026)
Where two headings read alike, the source gives them in different places.

Assays:
MYCN-MAX = assay: Immunoprecipitation of MYCN and immunoblot for MAX; type: cell-based; conditions: SK-N-BE(2) cells, 2 hrs
Procedure: Pulldowns were performed with anti-N-Myc antibody (Santa Cruz, SC-53993) and Protein G sepharose beads (Sigma-Aldrich, P3296). Immunoblots were performed as described above.

OSC-20 = assay: Cancer cell line profiling, Genomics of Drug Sensitivity Project; conditions: read-out: CD532 EC50 (uM)
NUGC-3 = assay: as above
NB5 = assay: as above; conditions: read-out: CD532 EC50 (uM)
BICR 78 = assay: as above; conditions: read-out: CD532 EC50 (uM)
IMR-5 = assay: as above; conditions: Homo sapiens, IMR-5, read-out: CD532 EC50 (uM)
B-CPAP = assay: as above; conditions: Homo sapiens, BCPAP, read-out: CD532 EC50 (uM)
[1] = system: MYCN-expressing, SHH-subtype medulloblastoma allograft; assay: Medulloblastoma allograft in mice; type: in vivo
Procedure: (§1) Mice were injected intraperitoneally as described. For determining tumor volume, for example in medulloblastoma model mice, mice were euthanized once maximum tumor length exceeded 2.0 cm, per IACUC protocol (IACUC, Institutional Animal Care and Use Committee).

NB13 = assay: Cancer cell line profiling, Genomics of Drug Sensitivity Project; conditions: read-out: CD532 EC50 (uM)
HSC-3 = assay: as above; conditions: Homo sapiens, HSC-3, read-out: CD532 EC50 (uM)
TT = assay: as above; type: cell-based; conditions: Homo sapiens, read-out: CD532 EC50 (uM), Thyroid
LB831-BLC = assay: as above; conditions: read-out: CD532 EC50 (uM)
SAS = assay: as above; conditions: read-out: CD532 EC50 (uM)
IPC-298 = assay: as above; conditions: Homo sapiens, IPC-298, read-out: CD532 EC50 (uM)
MKN1 = assay: as above; conditions: Homo sapiens, MKN-1, read-out: CD532 EC50 (uM)
SK-MEL-30 = assay: as above; conditions: Homo sapiens, SK-MEL-30, read-out: CD532 EC50 (uM)
JHH-7 = assay: as above; conditions: JHH7, read-out: CD532 EC50 (uM)
MYCN [2] = assay: Dose response immunoblot for MYCN in MYCN-amplified neuroblastoma cell lines (SK-N-BE(2), SMS-KCN, Kelly); type: cell-based; conditions: multiple cell lines, 24 hrs (FIGS. 1D and 7)
Procedure: Neuroblastoma tumor cell lines were obtained from the University of California San Francisco Cell Culture Facility (Kelly, SK-N-BE2, and SH-EP). SMS-KCN, SHEP MYCN^wt and MYCN^T58A/S62A cells were obtained. All cells were grown in RPMI with 10% FBS. Neuroblastoma cells were harvested and lysed with Cell Signaling Lysis buffer+1% SDS, sonicated and supernatants boiled in LDS sample buffer (Invitrogen). Western blots were performed as described previously (Chanthery et al., 2012), with primary antibodies to MYCN (ab24193, Abcam), Histone H3, P-Histone H3 (S10), Aurora A (Cell signaling), and GAPDH (Millipore). Western blot quantitation performed with ImageJ software.

HMVII = assay: Cancer cell line profiling, Genomics of Drug Sensitivity Project; conditions: read-out: CD532 EC50 (uM)
[3] = system: SK-N-BE(2) MYCN-amplified neuroblastoma cells; assay: Viability at 72 hrs, CyQUANT assay; type: cell-based; conditions: Homo sapiens, SKNBE2, SK-N-BE(2) cells, FIG. 1E, read-out: cellular EC50 at 72 hrs
MYCN [4] = assay: MYCN-amplified neuroblastoma xenografts, MYCN protein in tumors; type: in vivo; conditions: mice treated daily for 2 days with 60 mg/kg
Procedure: as §1

[5] = system: MYCN amplified neuroblastoma cells; assay: Cell cycle by flow cytometry; type: cell-based; conditions: 4 or 6 hrs of treatment
Procedure: Neuroblastoma cells were treated for the indicated time, trypsinized, washed, stained with Dylight 800 at 0.3 μg/mL (Pierce, 46421), fixed with 1.5% PFA, and permeabilized with 100% methanol. Cells were then stained with antibodies against p-MPM2 (Millipore, 16-155), p-pan-Aurora (Cell Signaling, 2914), MYCN (Thermo, PA5-17403), rabbit IgG (Invitrogen, A10542), or mouse IgG (BioLegend, 405307). Cells were stained with DAPI at 0.3 μg/mL (Invitrogen, D21490) and analyzed on the BD LSR II flow cytometer. For cell cycle analysis, cells were stimulated with EdU for 2 hours prior to harvest, then probed using the Click-iT EdU Flow Cytometry Assay Kit (Invitrogen, C10424). Cells were stained with propidium iodide (BD, 556547) and analyzed on the BD FACSCalibur flow cytometer. Data was gated using Cytobank. For viability studies, neuroblastoma cells were plated in 96-well plates at a density of 1,000 cells/well for SHEP or 4,000 cells/well for Kelly or SK—N-BE2 cells, then incubated with indicated concentrations of drug for 72 hours at 37° C. Plates were frozen at −80° C. to induce cell lysis. CyQUANT reagent mixture (Invitrogen, C7026) was added to thawed plates, then fluorescence was measured. Alternatively, resazurin (Sigma-Aldrich, R7017) was added directly to wells following drug treatment then incubated for 4 hours at 37° C. prior to measuring fluorescence. Data was analyzed using GraphPad Prism software.

In the case of `O=C(Nc1ccc(Nc2nccc(Nc3cc(C4CCCC4)[nH]n3)n2)cc1)Nc1cccc(C(F)(F)F)c1` [CD532, 1-(4-((4-((5-cyclopentyl-1H-pyrazol-3-yl)amino)pyrimidin-2-yl)amino)phenyl)-3-(3-(trifluoromethyl)phenyl)urea], the MYCN-MAX binding (MYCN-MAX) is reported as “did not affect MYCN-MAX binding”, the EC50 (OSC-20) is reported as 1.23 µM and the EC50 (NUGC-3; Homo sapiens, NUGC-3, read-out: CD532 EC50 (uM), NUGC-3 cell line, Stomach) is reported as 0.968 µM. The EC50 (NUGC-3; read-out: CD532 EC50, NUGC-3 cell line, Stomach) was 1.15 µM, the EC50 (NB5) was 0.761 µM and the EC50 (BICR 78) was 12.2 µM. For the same molecule, the EC50 (IMR-5) was 0.0071 µM, the EC50 (B-CPAP) was 0.739 µM and the overall survival ([1]; 25 mg/kg b.i.w. vs vehicle) was “statistical significant increase in overall survival”. The “tumor growth (tumor size over time)” value ([1]; 25 mg/kg b.i.w., intraperitoneal injection) was “inhibits growth”, the EC50 (NB13) was 1.02 µM and the EC50 (HSC-3) was 2.33 µM. It also gave an EC50 (TT) of 0.972 µM, an EC50 (LB831-BLC) of 1.29 µM and an EC50 (SAS) of 1.46 µM. The EC50 (IPC-298) was 0.574 µM, the EC50 (MKN1) was 0.86 µM and the EC50 (SK-MEL-30) was 0.323 µM. The EC50 (JHH-7) was 0.766 µM, the “MYCN protein, dose response” value (MYCN [2]) was “dose dependent loss of MYCN protein” and the EC50 (HMVII) was 0.746 µM. The EC50 [3] was 223 nM, the “MYCN protein in tumors” value (MYCN [4]) was “decreased levels of MYCN protein” and the cell cycle effect [5] was “potent loss of S-phase entry”.
